Data: patent US10745401B2, “Condensed lactam derivative” (Sumitomo Dainippon Pharma Co., Ltd., priority 2018, dated 2020)

Key:
[1] = molecular target: hERG channel (Homo sapiens (Human), UniProt Q12809); assay: Test 6-1: inhibitory activity for hERG channel (auto patch clamp, Qpatch); type: cell-based; conditions: whole cell auto patch clamp, hERG-CHO cells; read-out: hERG inhibition IC50
How it was run: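 Whole-cell patch clamp on an automated system using CHO cells stably expressing human hERG (IKr); 15 s pulse interval. Four increasing compound concentrations applied cumulatively; mean peak tail current from last 3 stimulations per concentration used. IC50 from inhibition versus pre-compound current, fitted by Hill equation.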

[2] = Test 4: metabolic stability test in human hepatic microsome; type: in vitro ADME; conditions: 0.1 mg/mL microsome, 0.1 μmol/L compound, 37° C., 30 minutes
How it was run: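 LC-MS quantified remaining parent after 30 min, 37° C, in pH 7.4 25 mmol/L phosphate containing 0.1 mg/mL human hepatic microsomes, 3.2 mmol/L NADPH and 0.1 μmol/L test compound. Value given as −LN(residual ratio)/30/0.1, mL/min/mg protein.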

[3] = molecular target: T1, human 5-HT2A receptor (Homo sapiens (Human), UniProt P28223); assay: Test 3: antagonist activity for human 5-HT2A receptor (aequorin luminescence, CHO-K1 cells); type: cell-based; conditions: CHO-K1 cells, 1 nmol/L 5-HT
T1 sequence (P28223 whole entry): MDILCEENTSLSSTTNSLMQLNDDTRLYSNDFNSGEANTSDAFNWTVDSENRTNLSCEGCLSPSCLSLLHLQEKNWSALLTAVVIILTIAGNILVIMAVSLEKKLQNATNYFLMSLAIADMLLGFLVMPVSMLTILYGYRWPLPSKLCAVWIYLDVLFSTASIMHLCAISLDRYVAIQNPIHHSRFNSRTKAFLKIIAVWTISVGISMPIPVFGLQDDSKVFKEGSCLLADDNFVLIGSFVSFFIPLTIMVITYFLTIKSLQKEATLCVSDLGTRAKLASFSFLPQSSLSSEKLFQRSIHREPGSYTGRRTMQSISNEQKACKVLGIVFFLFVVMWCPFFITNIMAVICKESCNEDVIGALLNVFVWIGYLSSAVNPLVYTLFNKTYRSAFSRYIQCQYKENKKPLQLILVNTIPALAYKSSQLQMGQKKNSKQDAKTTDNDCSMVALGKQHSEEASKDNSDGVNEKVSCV
Description: Test 3: Evaluation of Antagonist Activity for Human 5-HT2A Receptor
Aequorin, Gα16 protein, and each receptor were transiently expressed in CHO-K1 cells (Chinese hamster ovary). […] Each compound dissolved in DMSO was added thereto, and changes in luminescence were measured by FDSS/μCELL functional drug screening system (Hamamatsu Photonics K.K.). Antagonist activity was calculated from the following formula. Antagonist activity (%)=100×{(Luminescence of well in the presence of 1 nmol/L 5-HT−Luminescence of well containing solvent)−(Luminescence of well in the presence of test compound and 1 nmol/L 5-HT−Luminescence of well containing solvent)}/(Luminescence of well in the presence of 1 nmol/L 5-HT−Luminescence of well containing solvent)

[4] = molecular target: T2, human 5-HT1A receptor (Homo sapiens (Human), UniProt P08908); assay: Test 2: agonist activity for human 5-HT1A receptor ([35S]GTPγS binding); type: biochemical; conditions: for Emax at 10 µM: agonist activity in the presence of 10 μM of compound, relative to 100 μmol/L 5-HT; for EC50: [35S]GTPγS binding, concentration at which half the activity of Emax was obtained
T2 sequence (P08908 whole entry): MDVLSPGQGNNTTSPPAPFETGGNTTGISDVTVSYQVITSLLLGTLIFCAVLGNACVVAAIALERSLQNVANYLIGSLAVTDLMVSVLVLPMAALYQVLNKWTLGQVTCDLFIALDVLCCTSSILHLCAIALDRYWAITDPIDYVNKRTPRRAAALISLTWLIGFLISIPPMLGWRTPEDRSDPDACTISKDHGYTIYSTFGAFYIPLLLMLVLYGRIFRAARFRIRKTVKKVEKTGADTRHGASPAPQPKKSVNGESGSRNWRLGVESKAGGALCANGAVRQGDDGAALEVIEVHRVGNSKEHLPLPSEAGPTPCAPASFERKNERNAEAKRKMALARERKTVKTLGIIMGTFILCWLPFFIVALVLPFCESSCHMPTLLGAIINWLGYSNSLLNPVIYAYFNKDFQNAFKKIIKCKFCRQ
How it was run: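 [35S]GTPγS binding read-out: after 60 min at room temperature with test compound in GDP buffer, human 5-HT1A receptor CHO membranes were vacuum-filtered and retained radioactivity scintillation-counted. Agonist activity calculated by formula.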

[5] = molecular target: T1, human 5-HT2A receptor; assay: Test 1: binding activity for human 5-HT2A receptor ([3H]Ketanserin, CHO cell membrane fraction)
Description: Test 1: Evaluation of Binding Activity for Human 5-HT1A Receptor, Human 5-HT2A Receptor, and Human D2 Receptor
Binding affinity of the present compound for human 5-HT1A receptor, human 5-HT2A receptor, and human D2 receptor was measured by the following procedures.
Each mixture was incubated at room temperature for 60 minutes. Then, the mixture was added quickly on a glassfiber filter plate (Multiscreen FB, Millipore, Inc.) coated with 0.3% aqueous polyethylenimine, and vacuum-filtered. Radioactivity remaining on the filter was measured with a liquid scintillation counter (PerkinElmer, Inc.). Binding inhibition rate was calculated from the following formula.
Ki of each compound was calculated from the following formula. Binding inhibition constant (Ki)=IC50/(1+S/Kd) wherein S is concentration of ligand; Kd is a binding dissociation constant of ligand to membrane, which is calculated from a saturated binding experiment conducted with the same cell membrane. A small Ki value means strong binding ability to a receptor.

[6] = molecular target: human D2 receptor (Homo sapiens (Human), UniProt P14416); assay: Test 1: binding activity for human D2 receptor ([3H]Spiperone, CHO cell membrane fraction); conditions: human D2 receptor, [3H]Spiperone
human D2 receptor, sequence (P14416 whole entry): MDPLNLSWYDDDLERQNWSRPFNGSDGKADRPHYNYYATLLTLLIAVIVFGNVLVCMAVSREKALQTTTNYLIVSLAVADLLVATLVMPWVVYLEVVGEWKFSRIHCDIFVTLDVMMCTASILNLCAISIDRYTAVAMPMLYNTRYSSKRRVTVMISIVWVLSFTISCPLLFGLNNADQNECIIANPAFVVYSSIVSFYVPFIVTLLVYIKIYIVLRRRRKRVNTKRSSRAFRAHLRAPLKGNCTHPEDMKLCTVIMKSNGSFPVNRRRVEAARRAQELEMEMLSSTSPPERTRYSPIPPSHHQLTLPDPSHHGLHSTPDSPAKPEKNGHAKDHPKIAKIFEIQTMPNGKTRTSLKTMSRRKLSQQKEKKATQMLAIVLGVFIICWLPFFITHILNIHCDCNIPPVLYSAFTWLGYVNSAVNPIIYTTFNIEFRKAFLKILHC
How it was run: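 Compound displacement of [3H]ketanserin at 5-HT2A or [3H]spiperone at D2 was measured in CHO membrane fractions after 60 min at room temperature, with filtration and scintillation counting. IC50 was converted to Ki by Cheng–Prusoff using ligand concentration and Kd from saturation binding.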

[7] = molecular target: T2, human 5-HT1A receptor; assay: Test 1: binding activity for human 5-HT1A receptor ([3H]8-OH-DPAT, CHO cell membrane fraction)
How it was run: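 Membranes incubated with [3H]8-OH-DPAT and compound for 60 min at room temperature, then filtered on polyethylenimine-coated glass-fibre plates and counted by liquid scintillation. IC50 from Hill analysis; Ki = IC50/(1+S/Kd), Kd from saturation binding on the same membranes.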

hERG channel, sequence (Q12809 whole entry): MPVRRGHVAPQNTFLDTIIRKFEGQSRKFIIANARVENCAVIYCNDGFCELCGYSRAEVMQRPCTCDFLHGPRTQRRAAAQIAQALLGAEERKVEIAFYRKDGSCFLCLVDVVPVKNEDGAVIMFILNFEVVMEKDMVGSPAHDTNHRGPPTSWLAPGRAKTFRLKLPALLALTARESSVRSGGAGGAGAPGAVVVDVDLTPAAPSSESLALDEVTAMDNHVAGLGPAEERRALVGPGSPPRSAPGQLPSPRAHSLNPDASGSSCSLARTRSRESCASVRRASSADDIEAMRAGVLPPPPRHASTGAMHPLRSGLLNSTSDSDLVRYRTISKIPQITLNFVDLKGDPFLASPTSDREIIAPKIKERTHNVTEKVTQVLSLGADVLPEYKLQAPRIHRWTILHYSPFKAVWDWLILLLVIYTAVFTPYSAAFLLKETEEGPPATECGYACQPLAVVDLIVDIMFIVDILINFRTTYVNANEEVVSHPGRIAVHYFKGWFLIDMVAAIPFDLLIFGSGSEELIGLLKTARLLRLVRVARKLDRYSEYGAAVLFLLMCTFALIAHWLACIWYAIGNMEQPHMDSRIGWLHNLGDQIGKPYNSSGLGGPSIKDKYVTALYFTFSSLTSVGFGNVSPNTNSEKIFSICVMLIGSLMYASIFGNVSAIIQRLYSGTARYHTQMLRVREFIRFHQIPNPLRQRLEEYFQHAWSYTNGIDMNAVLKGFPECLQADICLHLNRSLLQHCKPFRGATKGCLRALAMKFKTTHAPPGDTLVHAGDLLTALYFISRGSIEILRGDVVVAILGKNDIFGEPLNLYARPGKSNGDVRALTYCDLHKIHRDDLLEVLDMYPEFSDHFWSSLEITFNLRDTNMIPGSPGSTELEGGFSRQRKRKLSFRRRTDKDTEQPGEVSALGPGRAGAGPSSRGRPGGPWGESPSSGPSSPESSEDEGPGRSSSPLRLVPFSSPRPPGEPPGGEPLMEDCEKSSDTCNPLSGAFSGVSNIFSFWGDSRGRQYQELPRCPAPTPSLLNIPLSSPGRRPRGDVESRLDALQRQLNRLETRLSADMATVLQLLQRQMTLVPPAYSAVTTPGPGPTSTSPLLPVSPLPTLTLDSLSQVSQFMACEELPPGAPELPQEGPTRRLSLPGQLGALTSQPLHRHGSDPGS

For Cn1ncc2c1CCCC(CCN1CCC(c3noc4ccccc34)CC1)C2=O (stereo not shown) [Example 30], the IC50 [1] was 900 nM, the “Metabolic stability in human hepatic microsome” value (shortened to “Metabolic stability”) [2] was 0.065 mL/min/mg protein and the IC50 [3] was 43 nM. For the same molecule, the Emax at 10 µM [4] was 42% and the Ki [5] was 0.76 nM.
In the case of Cc1cc2c(cn1)C(=O)N(CCN1CCN(c3nsc4ccccc34)CC1)CC2 [Example 108, 2-{2-[4-(1,2-Benzoisothiazol-3-yl)piperazin-1-yl]ethyl}-6-methyl-3,4-dihydro-2,7-naphthyridin-1(2H)-one], the IC50 [1] is reported as 2800 nM, the “Metabolic stability” value [2] is reported as 0.119 mL/min/mg protein and the IC50 [3] is reported as 7.5 nM. It also gave an Emax at 10 µM [4] of 71%.
For Cc1noc2ccn(CCN3CCN(c4nsc5ccccc45)CC3)c(=O)c12 [Example 53], the IC50 [1] was 5800 nM, the “Metabolic stability” value [2] was 0.436 mL/min/mg protein and the IC50 [3] was 8.03 nM. The Emax at 10 µM [4] was 72%.
With O=C1c2ncccc2CCN1CCN1CCC(c2noc3cc(F)ccc23)CC1 [Example 125] the IC50 [1] was < 300 nM, the “Metabolic stability” value [2] was <0.05 mL/min/mg protein and the IC50 ([3]; aequorin luminescence) was 7.15 nM. It also gave a Ki [5] of 0.27 nM.
Cc1cc2c(cn1)C(=O)N(CCN1CC=C(c3noc4ccccc34)CC1)CC2 [Example 152] gave an IC50 ([3]; aequorin luminescence) of 82.7 nM and a Ki [5] of 11.4 nM.
O=C1c2c(Br)nn(Br)c2CCN1CCN1CCN(c2nsc3ccccc23)CC1 [Example 69] gave a Ki [6] of 360 nM, a Ki [7] of 10.4 nM and an EC50 [4] of 33.9 nM. The Emax at 10 µM [4] was 45% and the Ki [5] was 1 nM.
In the case of O=c1c2cnccc2ccn1CCN1CCC(c2noc3ccccc23)CC1 [Example 13], the “Metabolic stability” value [2] is reported as <0.01 mL/min/mg protein, the IC50 [3] is reported as 71 nM and the Ki [5] is reported as 8.4 nM.
For CCc1nc2c(o1)C(=O)N(CCN1CCC(c3noc4ccccc34)CC1)CC2 [Example 72], the IC50 [3] was 72 nM and the Ki [5] was 7.8 nM.
For O=C1c2ncccc2CCN1CCN1CCN(c2noc3cc(Cl)ccc23)CC1 [Example 124], the IC50 ([3]; aequorin luminescence) was 120 nM and the Ki [5] was 77 nM.
For O=C1c2ncccc2CCN1CCN1CCC(c2noc3cc(F)ccc23)CC1 [Example 4], the IC50 [1] was 400 nM, the “Metabolic stability” value [2] was 0.011 mL/min/mg protein and the IC50 [3] was 9.95 nM. The Ki [5] was 2.4 nM.
For Cc1nc2c(o1)C(=O)N(CCN1CCN(c3noc4ccccc34)CC1)CC2 [Example 178], the Ki [6] was > 10000 nM, the IC50 ([3]; aequorin luminescence) was 2020 nM and the Ki [5] was 179 nM.
For Cc1nccc2c1C(=O)N(CCN1CCC(c3noc4ccccc34)CC1)CC2 [Example 87], the Ki [6] was 94 nM, the IC50 [1] was 500 nM and the “Metabolic stability” value [2] was 0.458 mL/min/mg protein. For the same molecule, the Ki [7] was 0.12 nM and the Emax at 10 µM [4] was 76%.
In the case of O=C1c2cnccc2C2(CC2)CN1CCN1CCN(c2noc3ccccc23)CC1 [Example 136], the Ki [6] is reported as 2300 nM, the IC50 [1] is reported as 6000 nM and the “Metabolic stability” value [2] is reported as 0.598 mL/min/mg protein. The Ki [7] was 75.8 nM, the EC50 [4] was 562 nM and the Emax at 10 µM [4] was 30%.
For COc1ncc2c(n1)CCN(CCN1CCN(c3nsc4ccccc34)CC1)C2=O [Example 177], the Ki [6] was 237 nM, the IC50 [1] was 3700 nM and the “Metabolic stability” value [2] was 0.095 mL/min/mg protein. The Ki [7] was 5.63 nM and the Emax at 10 µM [4] was 36%.
With O=C1c2cn(-c3ccccc3)nc2CCN1CCN1CCN(c2nsc3ccccc23)CC1 [Example 168] the Ki [6] was 145 nM, the IC50 [1] was < 300 nM and the “Metabolic stability” value [2] was 0.924 mL/min/mg protein. The Ki [7] was 1.02 nM, the EC50 [4] was 100 nM and the Emax at 10 µM [4] was 52%.
For O=C1c2cn(C3CC3)nc2CCN1CCN1CCN(c2nsc3ccccc23)CC1 [Example 75], the Ki [6] was 210 nM, the IC50 [1] was 1200 nM and the “Metabolic stability” value [2] was 0.174 mL/min/mg protein. For the same molecule, the Ki [7] was 2.39 nM, the EC50 [4] was 7.13 nM and the Emax at 10 µM [4] was 56%.
With O=C1c2occc2CCN1CCN1CCC(c2noc3ccccc23)CC1 [Example 127] the Ki [6] was 203 nM, the IC50 [1] was 600 nM and the “Metabolic stability” value [2] was <0.05 mL/min/mg protein. It also gave a Ki [7] of 35.7 nM, an EC50 [4] of 56.9 nM and an Emax at 10 µM [4] of 48%.
In the case of CCc1ncc2c(n1)CCN(CCN1CCN(c3nsc4ccccc34)CC1)C2=O [Example 93, 6-{2-[4-(1,2-Benzoisothiazol-3-yl)piperazin-1-yl]ethyl}-2-ethyl-7,8-dihydropyrido[4,3-d]pyrimidin-5(6H)-one], the Ki [6] is reported as 826 nM, the IC50 [1] is reported as 6600 nM and the “Metabolic stability” value [2] is reported as 0.149 mL/min/mg protein. It also gave a Ki [7] of 9.36 nM, an EC50 [4] of 15.1 nM and an Emax at 10 µM [4] of 41%.
In the case of O=C1c2ncccc2CCN1CCN1CCN(c2noc3cc(F)ccc23)CC1 [Example 123], the IC50 [1] is reported as 3900 nM, the “Metabolic stability” value [2] is reported as <0.05 mL/min/mg protein and the IC50 ([3]; aequorin luminescence) is reported as 22.9 nM. The Ki [7] was 162 nM, the EC50 [4] was 186 nM and the Emax at 10 µM [4] was 71%.
In the case of O=C1c2cncnc2CCN1CCN1CCN(c2nsc3ccccc23)CC1 [Example 58], the Ki [6] is reported as 780 nM, the IC50 [1] is reported as 6000 nM and the “Metabolic stability” value [2] is reported as 0.092 mL/min/mg protein. The Ki [7] was 6.9 nM, the EC50 [4] was 42.1 nM and the Emax at 10 µM [4] was 51%.
With Cc1nccc2c1C(=O)N(CCN1CCN(c3noc4ccccc34)CC1)CC2 [Example 85] the Ki [6] was 1070 nM, the IC50 [1] was > 10000 nM and the “Metabolic stability” value [2] was 0.046 mL/min/mg protein. For the same molecule, the Ki [7] was 101 nM, the EC50 [4] was 41.1 nM and the Emax at 10 µM [4] was 35%.
In the case of N#Cc1cc2c(cn1)C(=O)N(CCN1CCN(c3nsc4ccccc34)CC1)CC2 [Example 102, 7-{2-[4-(1,2-Benzoisothiazol-3-yl)piperazin-1-yl]ethyl}-8-oxo-5,6,7,8-tetrahydro-2,7-naphthyridine-3-carbonitrile], the Ki [6] is reported as 852 nM, the IC50 [1] is reported as 1000 nM and the “Metabolic stability” value [2] is reported as 0.194 mL/min/mg protein. For the same molecule, the Ki [7] was 0.25 nM, the EC50 [4] was 1.1 nM and the Emax at 10 µM [4] was 74%.
With Cn1cnc2c1C(=O)N(CCN1CCC(c3noc4ccccc34)CC1)CCC2 [Example 134] the Ki [6] was 310 nM, the IC50 [1] was 3500 nM and the “Metabolic stability” value [2] was <0.05 mL/min/mg protein. The Ki [7] was 65.3 nM, the EC50 [4] was 221 nM and the Emax at 10 µM [4] was 41%.
For Cn1cc2c(n1)C(=O)N(CCN1CCN(c3nsc4ccccc34)CC1)CC2 [Example 50], the Ki [6] was 825 nM, the IC50 [1] was 8500 nM and the “Metabolic stability” value [2] was 0.038 mL/min/mg protein. It also gave a Ki [7] of 1.25 nM, an EC50 [4] of 5.14 nM and an Emax at 10 µM [4] of 59%.
With Cc1cc2c(cn1)C(=O)N(CCN1CCN(c3noc4ccccc34)CC1)CC21CC1 [Example 21] the Ki [6] was 2120 nM, the IC50 [1] was 8000 nM and the “Metabolic stability” value [2] was 0.323 mL/min/mg protein. It also gave a Ki [7] of 8.62 nM, an EC50 [4] of 18 nM and an Emax at 10 µM [4] of 59%.
With O=C1c2cn(C3CC3)nc2CCN1CCN1CCC(c2noc3ccccc23)CC1 [Example 76] the Ki [6] was 472 nM, the IC50 [1] was < 270 nM and the “Metabolic stability” value [2] was 0.018 mL/min/mg protein. For the same molecule, the Ki [7] was 6.48 nM, the EC50 [4] was 4.13 nM and the Emax at 10 µM [4] was 35%.
With O=C1c2cccnc2CCN1CCN1CCN(c2nsc3ccccc23)CC1 [Example 9] the IC50 [1] was 2300 nM, the “Metabolic stability” value [2] was 0.100 mL/min/mg protein and the Emax at 10 µM [4] was 43%. It also gave a Ki [5] of 2.24 nM.
With COc1cc2c(cn1)CCN(CCN1CCN(c3nsc4ccccc34)CC1)C2=O [Example 19] the Ki [6] was 690 nM, the IC50 [1] was 5200 nM and the “Metabolic stability” value [2] was 0.378 mL/min/mg protein. It also gave a Ki [7] of 0.75 nM, an EC50 [4] of 6.7 nM and an Emax at 10 µM [4] of 68%.
